We go through 77 compounds from PubChem BioAssay AID1199 (EPA DSSTox, 2008).

The subject of the data set is mouse carcinogenicity bioassay, TD50 from CPDB. As to the kind of experiment: DSSTox (CPDBAS) Carcinogenic Potency Database Summary Mouse Bioassay Results. The method, boiled down:
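Values are TD50 carcinogenic potencies from mouse chronic bioassays, taking the most positive result for each sex-species. Sources are published literature and NCI/NTP studies; target sites reflect author-reported positive findings.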

The mark [1] stands for this setting: TD50_Mouse_Note: no positive results, TargetSites_Mouse_Female: no positive results.
[2] abbreviates: TD50_Mouse_Note: TD50 is harmonic mean of more than one positive test, TargetSites_Mouse_Female: liver.
[3] abbreviates: TD50_Mouse_Note: only experiment is NCI/NTP bioassay inadequate, TargetSites_Mouse_Female: NTP bioassay inadequate.
Setting [4] is: TD50_Mouse_Note: TD50 is harmonic mean of more than one positive test, TargetSites_Mouse_Female: hematopoietic system, lung.
Where [5] appears, read: TD50_Mouse_Note: no positive results.
Setting [6] is: TD50_Mouse_Note: positive test results only by intraperitoneal or intravenous injection, TargetSites_Mouse_Female: peritoneal cavity.
[7] abbreviates: TargetSites_Mouse_Female: liver.
[8] abbreviates: TargetSites_Mouse_BothSexes: no positive results.

Calls of active or inactive are those of the source.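 How the source made its calls: active means a tumour-causing dose and a tumour site recorded for mice in at least one sex group; inconclusive means only government mouse studies exist and were judged inadequate; inactive means mouse studies exist but none gave tumours.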

Take `O=C(O)CN(CCN(CC(=O)O)CC(=O)O)CC(=O)O`: the outcome under setting [1] is “inactive; no positive results”.

As for `CC(C)(CCCOc1ccc(OCCCC(C)(C)C(=O)O)c(-c2ccccc2)c1)C(=O)O`, the Potency under setting [2] is 0.125 mmol/kg/day.

Consider `CC[C@H]1CN2CCc3cc(OC)c(OC)cc3[C@@H]2C[C@@H]1C[C@H]1NCCc2cc(OC)c(OC)cc21`, for which the outcome under setting [3] is given as “ntp bioassay inadequate”.

Consider `c1ccc2n[nH]nc2c1`, for which the outcome under setting [1] was “inactive; no positive results”.

`COS(C)(=O)=O`: the Potency is 0.289 mmol/kg/day.

With `C=CC(=C)Cl`, the Potency (TD50_Mouse_Note: TD50 is harmonic mean of more than one positive test, TargetSites_Mouse_Female: ear Zymbals gland, harderian gland, liver, lung, mammary gland, peritoneal cavity, stomach, subcutaneous tissue, vascula) is 0.0923 mmol/kg/day.

Take `CN(N=O)c1ncnc2c1ncn2[C@@H]1O[C@H](CO)[C@@H](O)[C@H]1O`: the Potency (TD50_Mouse_Note: TD50 is harmonic mean of more than one positive test, TargetSites_Mouse_Female: lung, mammary gland, uterus) was 0.059 mmol/kg/day.

Turning to `Oc1c(Cl)cc(Cl)c(Cl)c1Cc1c(O)c(Cl)cc(Cl)c1Cl`, under setting [1], the outcome is “inactive; no positive results”.

In the case of `Cc1ncc([N+](=O)[O-])n1CCO`, the Potency under setting [4] is 2.96 mmol/kg/day.

Regarding `Nc1c(Cl)c(Cl)nc(C(=O)O)c1Cl`, the outcome under setting [1] was “inactive; no positive results”.

As to `NC(=O)c1cnccn1`, the outcome (TD50_Mouse_Note: no positive results, TargetSites_Mouse_Female: NTP bioassay inadequate) was “inactive; no positive results”.

As to `ClCC1CO1` (centres undefined), the outcome under setting [1] was inactive.

Take `O=[N+]([O-])c1ccc(NCCO)c(OCCO)c1`: under setting [1], the outcome was “inactive; no positive results”.

For the compound `Cc1cc(Cl)ccc1N`, the Potency (TD50_Mouse_Note: TD50 is harmonic mean of more than one positive test, greater than ten-fold variation among TD50 values for positive res, TargetSites_Mouse_Female: vascular system) is 0.145 mmol/kg/day.

Take `N=C1C=CC(=C(c2ccc(N)cc2)c2ccc(N)cc2)C=C1`: the Potency (TD50_Mouse_Note: TD50 is harmonic mean of more than one positive test, TargetSites_Mouse_Female: adrenal gland, liver) is 0.159 mmol/kg/day.

On to `O=c1cc[nH]c(=S)[nH]1`, for which, under setting [2], the Potency is 0.429 mmol/kg/day.

On to `Clc1ccccc1Cl`, for which the outcome under setting [1] is “inactive; no positive results”.

On to `O=C1CCCCC1`, for which the outcome under setting [1] is “inactive; no positive results”.

As for `CN(Cc1cnc2nc(N)nc(N)c2n1)c1ccc(C(=O)N[C@@H](CCC(=O)O)C(=O)O)cc1`, the outcome under setting [1] was “inactive; no positive results”.

On to `N[C@@H](Cc1c[nH]c2ccccc12)C(=O)O`, for which, under setting [1], the outcome was “inactive; no positive results”.

For the compound `ClC1=C(Cl)[C@@]2(Cl)[C@@H]3[C@@H](Cl)[C@H](Cl)C[C@@H]3C1(Cl)C2(Cl)Cl`, the Potency (TD50_Mouse_Note: TD50 is harmonic mean of more than one positive test, greater than ten-fold variation among TD50 values for positive res, TargetSites_Mouse_Female: liver) is 0.00334 mmol/kg/day.

As to `ClC1C2(Cl)C3C4C5OC5C5C4C1(Cl)C(Cl)(C53)C2(Cl)Cl` (centres undefined), the outcome under setting [1] was “inactive; no positive results”.

Regarding `O=C(O)c1ccc(N=Nc2ccc(O)c(C(=O)O)c2)cc1`, under setting [1], the outcome was “inactive; no positive results”.

For the compound `NC(=S)Nc1ccccc1`, the outcome under setting [1] is “inactive; no positive results”.

As for `O=C(Oc1ccccc1)Oc1ccccc1`, under setting [1], the outcome is “inactive; no positive results”.

Turning to `COP(=S)(OC)Oc1ccc([N+](=O)[O-])cc1`, the outcome under setting [1] was “inactive; no positive results”.

With `CC1=C[C@H]2O[C@@H]3[C@H](O)C[C@@](C)(C34CO4)[C@@]2(CO)[C@H](O)C1=O` (some centres undefined), the outcome under setting [5] is “inactive; no positive results”.

For the compound `C#C[C@]1(OC(C)=O)CC[C@H]2[C@@H]3CCC4=CC(=O)CC[C@@H]4[C@H]3CC[C@@]21C`, the outcome (TD50_Mouse_Note: no positive results are statistically significant, TD50_Mouse_mmol was not calculated for this mixture, but Activiity Sc, TargetSites_Mouse_Female: pituitary gland) was active.

Regarding `ClCOCCOCCl`, under setting [6], the Potency was 0.0291 mmol/kg/day.

Take `Nc1ccc([N+](=O)[O-])cc1N`: the outcome under setting [1] was “inactive; no positive results”.

Consider `CC1=C(/C=C/C(C)=C/C=C/C(C)=C/C(=O)O)C(C)(C)CCC1`, for which the outcome under setting [1] was “inactive; no positive results”.

With `ClCC(Br)CBr` (centres undefined), the Potency (TD50_Mouse_Note: TD50 is harmonic mean of more than one positive test, TargetSites_Mouse_Female: lung, nasal cavity, stomach) is 0.0115 mmol/kg/day.

Regarding `C=CCCl`, the outcome under setting [1] is “inactive; no positive results”.

As to `O=C(O)O`, the outcome under setting [5] was “inactive; no positive results”.

Take `S=P(N1CC1)(N1CC1)N1CC1`: the Potency (TD50_Mouse_Note: positive test results only by intraperitoneal or intravenous injection, TD50 is harmonic mean of more than one positive, TargetSites_Mouse_Female: hematopoietic system) was 0.00118 mmol/kg/day.

For `O=c1[nH]cc(F)c(=O)[nH]1`, the Potency under setting [4] was 0.0228 mmol/kg/day.

`Nc1ncn([C@@H]2O[C@H](CO)[C@@H](O)[C@H]2O)c(=O)n1`: the Potency (TD50_Mouse_Note: positive test results only by intraperitoneal or intravenous injection, TD50 is harmonic mean of more than one positive, TargetSites_Mouse_Female: hematopoietic system, mammary gland, skin) was 0.000317 mmol/kg/day.

As for `S=C([S-])NCCNC(=S)[S-].[Mn+2]`, the outcome under setting [1] was “inactive; no positive results”.

As for `C=CCOc1ccccc1OCC(O)CNC(C)C` (centres undefined), under setting [1], the outcome is “inactive; no positive results”.

Regarding `ClCOCCCCCCOCCl`, the result under setting [1] was inactive.

Turning to `Nc1ncn[nH]1`, the Potency under setting [2] was 0.301 mmol/kg/day.

With `O=NN(c1ccccc1)c1ccccc1`, the outcome under setting [1] was “inactive; no positive results”.

On to `CC(Cc1ccccc1)NN` (centres undefined), for which the outcome under setting [1] is “inactive; no positive results”.

Take `O=C1C=CC(=O)C=C1`: the Potency (TD50_Mouse_Note: TD50 is harmonic mean of more than one positive test, TargetSites_Mouse_Female: hematopoietic system) was 0.0469 mmol/kg/day.

Regarding `C=CC=O`, under setting [1], the outcome is “inactive; no positive results”.

Consider `CCN(CC)C(=O)Nc1ccc(OCC(O)CNC(C)(C)C)c(C(C)=O)c1` (centres undefined), for which the outcome under setting [1] was “inactive; no positive results”.

As for `C[C@H]1CCCC(=O)CCC/C=C/c2cc(O)cc(O)c2C(=O)O1`, the Potency (TD50_Mouse_Note: TD50 is harmonic mean of more than one positive test, TargetSites_Mouse_Female: liver, pituitary gland) was 0.123 mmol/kg/day.

Consider `O=C(O)/C=C/c1ccc(O)c(O)c1`, for which, where the note is “TD50_Mouse_Note: TD50 is harmonic mean of more than one positive test, TargetSites_Mouse_Female: kidney, stomach”, the Potency was 27.2 mmol/kg/day.

Consider `CCC1(c2ccccc2)C(=O)NC(=O)NC1=O`, for which, where the note is “TD50_Mouse_Note: TD50 is harmonic mean of more than one positive test, harmonic mean of TD50 includes a value for upper 99% confidence li, TargetSites_Mouse_Female: liver”, the Potency was 0.0317 mmol/kg/day.

As to `NC(=O)N/N=C/c1ccc([N+](=O)[O-])o1`, the Potency (TargetSites_Mouse_Female: ovary) was 0.155 mmol/kg/day.

Turning to `C=CCN=C=S`, the outcome under setting [1] is “inactive; no positive results”.

For the compound `N[C@@H](CCC(=O)O)C(=O)O`, under setting [5], the outcome is “inactive; no positive results”.

Regarding `C=Cc1cccc[n+]1[O-]`, the result under setting [1] was inactive.

With `Cc1ccc(N)cc1N`, the Potency was 1.04 mmol/kg/day under setting [2] and 0.219 mmol/kg/day under setting [7].

`Cc1cc(C)c(S(=O)(=O)O)cc1N=Nc1cc(S(=O)(=O)O)c2ccccc2c1O`: the result under setting [8] was inactive.

As to `O[C@H]([C@H](O)[C@@H](O)CBr)[C@H](O)CBr`, the Potency (TD50_Mouse_Note: positive test results only by intraperitoneal or intravenous injection, TD50 is harmonic mean of more than one positive, TargetSites_Mouse_Female: hematopoietic system, lung) was 0.0357 mmol/kg/day.

Take `CCOP(=S)(OCC)Oc1ccc2c(C)c(Cl)c(=O)oc2c1`: the outcome under setting [1] was “inactive; no positive results”.

Take `Nc1ccc2cc3ccc(N)cc3nc2c1`: the outcome under setting [3] is on record as “ntp bioassay inadequate”.

As for `Cc1ccc([N+](=O)[O-])cc1N`, under “TD50_Mouse_Note: TD50 is harmonic mean of more than one positive test, TargetSites_Mouse_Female: liver, vascular system”, the Potency is 1.82 mmol/kg/day.

Take `OC(Cn1cncn1)(Cn1cncn1)c1ccc(F)cc1F`: the outcome under setting [1] was “inactive; no positive results”.

As to `ClCc1ccccn1`, under setting [1], the outcome is “inactive; no positive results”.

On to `CC(CN1c2ccccc2Sc2ccccc21)N(C)C` (centres undefined), for which the outcome under setting [1] is “inactive; no positive results”.

As to `Cc1cc(O)c(C(C)(C)C)cc1Sc1cc(C(C)(C)C)c(O)cc1C`, under setting [1], the outcome is “inactive; no positive results”.

`ClC/C=C/CCl`: under setting [6], the Potency was 0.0122 mmol/kg/day.

As to `O=[N+]([O-])c1ccc(O)c([N+](=O)[O-])c1`, the outcome under setting [1] was inactive and the outcome under setting [8] was inactive.

In the case of `COc1ccc([N+](=O)[O-])cc1N`, the Potency under setting [7] is 22.1 mmol/kg/day.

For the compound `CCOc1ccc(NC(C)=O)cc1[N+](=O)[O-]`, the Potency (TargetSites_Mouse_Female: no positive results) was 10.1 mmol/kg/day.

With `CN1C(=O)CN=C(c2ccccc2)c2cc(Cl)ccc21`, the outcome under setting [1] is “inactive; no positive results”.

Take `CC(C)NCC(O)c1ccc(NS(C)(=O)=O)cc1` (centres undefined): the outcome under setting [1] is “inactive; no positive results”.

As to `NNC(=O)c1ccccc1`, under setting [4], the Potency was 0.0704 mmol/kg/day.

For the compound `CCCCCl`, the outcome under setting [1] was “inactive; no positive results”.

Turning to `Cc1cc(O)cc(C)c1N(C)C`, the outcome under setting [1] was “inactive; no positive results”.

Consider `CN(C)C(=O)Cl`, for which the Potency under setting [6] was 0.0499 mmol/kg/day.

On to `COC(=O)[C@H]1[C@H]2C[C@@H]3c4[nH]c5cc(OC)ccc5c4CCN3C[C@H]2C[C@@H](OC(=O)c2cc(OC)c(OC)c(OC)c2)[C@@H]1OC`, for which the Potency (TD50_Mouse_Note: TD50 is harmonic mean of more than one positive test, TargetSites_Mouse_Female: mammary gland) was 0.00825 mmol/kg/day.

As for `Cc1noc(NS(=O)(=O)c2ccc(N)cc2)c1C`, the outcome under setting [1] was “inactive; no positive results”.

`CC1=C[C@H]2O[C@@H]3[C@H](O)[C@@H](O)[C@@](C)(C34CO4)[C@@]2(CO)[C@H](O)C1=O` (some centres undefined): the outcome under setting [1] was inactive.

As to `CC1(C)[C@H](C(=O)O[C@H](C#N)c2cccc(Oc3ccccc3)c2)[C@@H]1C=C(Br)Br`, the outcome under setting [1] was “inactive; no positive results”.
